# Test system: Human RSV-A (“Long” strain)
# Experiment: RSV-A assay: inhibition of cytopathic effect in Hep-2 cells, ATPlite readout
# Assay type: cell-based, Human respiratory syncytial virus (HRSV)
# Conditions: Hep-2 cells, MOI 0.1, 5-day incubation, ATPlite; read-out: Human RSV-A (“Long” strain) EC50
# Summary of the method: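 Cytopathic-effect protection was read as ATP content (ATPlite luminescence) after a 5-day incubation. Setup: Hep-2 cells at 8,000 per well, RSV-A Long at MOI 0.1, 2-fold serial compound dilutions in duplicate. Cytotoxicity (CC50) was measured on an identical uninfected plate run in parallel.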
row,SMILES,EC50
1,COCCCc1cc(C(F)(F)F)cnc1-c1nnc(N[C@H]2N=C(c3ccccc3)c3ccccc3NC2=O)o1 [Example 413],> 800 nM
2,O=C1Nc2ccccc2C(c2ccccc2)=N[C@@H]1Nc1nnc(-c2ncc(C(F)(F)F)cc2N[C@H]2CC[C@H]2O)o1 [Example 417],> 800 nM
3,O=C1Nc2ccccc2C(c2ccccc2)=N[C@@H]1Nc1nnc(-c2ncc(C(F)(F)F)cc2N[C@@H]2CC[C@@H]2O)o1 [Example 418],> 800 nM
4,O=C1Nc2ccccc2C(c2ccccc2)=N[C@@H]1Nc1ncc(-c2ncc(C(F)(F)F)cc2N2CCOCC2)o1 [Example 442],< 400 nM
5,O=C1Nc2ccccc2C(c2ccccc2)=N[C@@H]1Nc1nnc(-c2cn(-c3ccc(C(F)(F)F)nc3)nc2N2CCOCC2)o1 [Example 444],< 400 nM
6,O=C1Nc2ccccc2C(c2ccccc2)=N[C@@H]1Nc1nnc(-c2cn(CC3CC3)nc2N2CCOCC2)o1 [Example 446],< 400 nM
7,O=C1Nc2ccccc2C(c2ccccc2)=N[C@H]1Nc1nnc(-c2cn(CC3CC3)nc2N2CCOCC2)o1 [Example 447],400 to 800 nM

# Same assay, conditions: human respiratory syncytial virus, HEp-2, 120 h, read-out: Human RSV-A (“Long” strain) EC50
row,SMILES,EC50
1,COCCn1cc(-c2nnc(N[C@H]3N=C(c4ccccc4)c4ccccc4NC3=O)o2)c(N2CCOCC2)n1 [Example 402],< 400 nM
2,O=C1Nc2ccccc2C(c2ccccc2)=N[C@@H]1Nc1nnc(-c2oc3ncccc3c2N2CCOCC2)o1 [Example 404],< 400 nM
3,O=C1Nc2ccccc2C(c2ccccc2)=N[C@@H]1Nc1nnc(-c2nc(C3CCCCC3)sc2N2CCOCC2)o1 [Example 405],< 400 nM
4,C#Cc1nc(-c2nnc(N[C@H]3N=C(c4ccccc4)c4ccccc4NC3=O)o2)c(N2CCOCC2)s1 [Example 406],< 400 nM
5,COc1ccc2nccc(-c3nnc(N[C@H]4N=C(c5ccccc5)c5ccccc5NC4=O)o3)c2c1 [Example 408],> 800 nM
6,COCc1ccc2nccc(-c3nnc(N[C@H]4N=C(c5ccccc5)c5ccccc5NC4=O)o3)c2c1 [Example 409],> 800 nM
7,COc1ccn2ncc(-c3nnc(N[C@H]4N=C(c5ccccc5)c5ccccc5NC4=O)o3)c2c1 [Example 410],> 800 nM
8,COCCc1cccn2ncc(-c3nnc(N[C@H]4N=C(c5ccccc5)c5ccccc5NC4=O)o3)c12 [Example 411],> 800 nM
9,COCC(C)(C)Nc1cc(C(F)(F)F)cnc1-c1nnc(N[C@H]2N=C(c3ccccc3)c3ccccc3NC2=O)o1 [Example 414],> 800 nM
10,COCC1(Nc2cc(C(F)(F)F)cnc2-c2nnc(N[C@H]3N=C(c4ccccc4)c4ccccc4NC3=O)o2)CC1 [Example 415],> 800 nM
11,COC(C)(C)CNc1cc(C(F)(F)F)cnc1-c1nnc(N[C@H]2N=C(c3ccccc3)c3ccccc3NC2=O)o1 [Example 416],> 800 nM
12,O=C1Nc2ccccc2C(c2ccccc2)=N[C@@H]1Nc1nnc(-c2ncc(C(F)(F)F)cc2NC[C@@H]2CCCO2)o1 [Example 419],400 to 800 nM
13,O=C1Nc2ccccc2C(c2ccccc2)=N[C@@H]1Nc1nnc(-c2ncc(C(F)(F)F)cc2NC[C@H]2CCCO2)o1 [Example 420],< 400 nM
14,O=C1Nc2ccccc2C(c2ccccc2)=N[C@@H]1Nc1nnc(-c2ncc(C(F)(F)F)cc2NCc2ccco2)o1 [Example 421],> 800 nM
15,O=C1Nc2ccccc2C(c2ccccc2)=N[C@@H]1Nc1nnc(-c2ncc(C(F)(F)F)cc2N[C@H]2CCC[C@H]2O)o1 [Example 422],400 to 800 nM
16,O=C1Nc2ccccc2C(c2ccccc2)=N[C@@H]1Nc1nnc(-c2ncc(C(F)(F)F)cc2N[C@@H]2CCC[C@@H]2O)o1 [Example 423],400 to 800 nM
17,CC1(Nc2cc(C(F)(F)F)cnc2-c2nnc(N[C@H]3N=C(c4ccccc4)c4ccccc4NC3=O)o2)CCOC1 (stereo partly drawn) [Example 424],> 800 nM
18,O=C1Nc2ccccc2C(c2ccccc2)=N[C@@H]1Nc1nnc(-c2cn(-c3cccnc3)nc2N2CCOCC2)o1 [Example 425],< 400 nM
19,COCCn1ccc2cccc(-c3nnc(N[C@H]4N=C(c5ccccc5)c5ccccc5NC4=O)o3)c21 [Example 426],> 800 nM
20,O=C1Nc2ccccc2C(c2ccccc2)=N[C@@H]1Nc1nnc(-c2nc(-c3ccccc3F)sc2N2CCOCC2)o1 [Example 427],< 400 nM

row,SMILES,EC50
1,O=C1Nc2ccccc2C(c2ccccc2)=N[C@@H]1Nc1nnc(-c2nc(-c3ccc(F)cc3)sc2N2CCOCC2)o1 [Example 428],< 400 nM
2,O=C1Nc2ccccc2C(c2ccccc2)=N[C@@H]1Nc1nnc(-c2cn(C3CCC3)nc2N2CCOCC2)o1 [Example 430],< 400 nM
3,O=C1Nc2ccccc2C(c2ccccc2)=N[C@@H]1Nc1nnc(-c2cn(-c3ccccn3)nc2N2CCOCC2)o1 [Example 431],< 400 nM
4,Cc1cc(-c2nnc(N[C@H]3N=C(c4ccccc4)c4ccccc4NC3=O)o2)n(C2CCOCC2)n1 [Example 432],> 800 nM
5,O=C1Nc2ccccc2C(c2ccccc2)=N[C@@H]1Nc1nnc(-c2nc3ccccc3nc2N2CCOCC2)o1 [Example 433],< 400 nM
6,O=C1Nc2ccccc2C(c2ccccc2)=N[C@@H]1Nc1nnc(-c2cc3ccccc3nc2N2CCOCC2)o1 [Example 434],< 400 nM
7,N#Cc1ccc2nccc(-c3nnc(N[C@H]4N=C(c5ccccc5)c5ccccc5NC4=O)o3)c2c1 [Example 435],> 800 nM
8,CO[C@@H]1COC[C@H]1Nc1cc(C(F)(F)F)cnc1-c1nnc(N[C@H]2N=C(c3ccccc3)c3ccccc3NC2=O)o1 [Example 436],< 400 nM
9,CC(C)(O)c1nc(-c2nnc(N[C@H]3N=C(c4ccccc4)c4ccccc4NC3=O)o2)c(N2CCOCC2)s1 [Example 437],< 400 nM
10,COCCN1CCCn2ncc(-c3nnc(N[C@H]4N=C(c5ccccc5)c5ccccc5NC4=O)o3)c21 [Example 438],400 to 800 nM
11,COC1C2CN(c3cc(C(F)(F)F)cnc3-c3nnc(N[C@H]4N=C(c5ccccc5)c5ccccc5NC4=O)o3)CC21 (stereo partly drawn) [Example 439],> 800 nM
12,O=C1Nc2ccccc2C(c2ccccc2)=N[C@@H]1Nc1nnc(-c2cn(-c3ccc(C(F)(F)F)cn3)nc2N2CCOCC2)o1 [Example 440],400 to 800 nM
13,N#Cc1ccn2ncc(-c3nnc(N[C@H]4N=C(c5ccccc5)c5ccccc5NC4=O)o3)c2c1 [Example 441],> 800 nM
14,O=C1Nc2ccccc2C(c2ccccc2)=NC1Nc1nnc(-c2cn(-c3ccc(F)cn3)nc2N2CCOCC2)o1 (stereo not drawn) [Example 448],< 400 nM
15,COCc1ccn2ncc(-c3nnc(N[C@H]4N=C(c5ccccc5)c5ccccc5NC4=O)o3)c2c1 [Example 449],> 800 nM
16,O=C1Nc2ccccc2C(c2ccccc2)=NC1Nc1nnc(-c2ncc(C(F)(F)F)cc2CCO)o1 (stereo not drawn) [Example 450],> 800 nM
17,COC[C@@H](C)Nc1sc(C(F)(F)F)nc1-c1nnc(N[C@H]2N=C(c3ccccc3)c3ccccc3NC2=O)o1 [Example 451],400 to 800 nM
18,CO[C@@H](C)CNc1sc(C(F)(F)F)nc1-c1nnc(N[C@H]2N=C(c3ccccc3)c3ccccc3NC2=O)o1 [Example 452],< 400 nM
19,O=C1Nc2ccccc2C(c2ccccc2)=N[C@@H]1Nc1nnc(-c2nc(C(F)(F)F)sc2C2=CCOCC2)o1 [Example 453],< 400 nM
20,O=C1Nc2ccccc2C(c2ccccc2)=N[C@@H]1Nc1nnc(-c2nc(C(F)(F)C(F)(F)F)sc2N2CCOCC2)o1 [Example 454],< 400 nM

row,SMILES,EC50
1,O=C1Nc2ccccc2C(c2ccccc2)=N[C@@H]1Nc1nnc(-c2nc(C3(O)CCC3)sc2N2CCOCC2)o1 [Example 455],< 400 nM
2,COC[C@H]1CCCN1c1sc(C(F)(F)F)nc1-c1nnc(N[C@H]2N=C(c3ccccc3)c3ccccc3NC2=O)o1 [Example 456],> 800 nM
3,COC[C@@H]1CCCN1c1sc(C(F)(F)F)nc1-c1nnc(N[C@H]2N=C(c3ccccc3)c3ccccc3NC2=O)o1 [Example 457],> 800 nM
4,CCOC1(c2nc(-c3nnc(N[C@H]4N=C(c5ccccc5)c5ccccc5NC4=O)o3)c(N3CCOCC3)s2)CCC1 [Example 458],< 400 nM
5,CC(C)(c1nc(-c2nnc(N[C@H]3N=C(c4ccccc4)c4ccccc4NC3=O)o2)c(N2CCOCC2)s1)N1CCOCC1 [Example 459],< 400 nM
6,O=C1Nc2ccccc2C(c2ccccc2)=N[C@@H]1Nc1nnc(-c2ncc(C(F)F)cc2N2CCOCC2)o1 [Example 461],< 400 nM
7,O=C1Nc2ccccc2C(c2ccccc2)=N[C@@H]1Nc1cc(-c2ccccc2)cnn1 [Example 462],> 800 nM
8,O=C1Nc2ccccc2C(c2ccccc2)=NC1Nc1cc(N2CCOCC2)cnn1 (stereo not drawn) [Example 463],> 800 nM
9,O=C1Nc2ccccc2C(c2ccccc2)=N[C@@H]1Nc1nnc(-c2ncc(C(F)(F)F)cc2N[C@@H]2CCOC2)o1 [Example 464],< 400 nM
10,Cc1nsc(N2CCOCC2)c1-c1nnc(N[C@H]2N=C(c3ccccc3)c3ccccc3NC2=O)o1 [Example 465],400 to 800 nM
11,O=C1Nc2ccccc2C(c2ccccc2)=N[C@@H]1Nc1nnc(-c2ncc(C(F)(F)F)cc2N2CCOc3ccccc32)o1 [Example 468],> 800 nM
12,O=C1Nc2ccccc2C(c2ccccc2)=N[C@@H]1Nc1nnc(-c2ncc(C(F)(F)F)cc2NC2COC2)o1 [Example 469],< 400 nM
13,O=C1Nc2ccccc2C(c2ccccc2)=N[C@@H]1Nc1nnc(-c2ncc(C(F)(F)F)cc2N[C@H]2CCOC2)o1 [Example 470],> 800 nM
14,O=C1Nc2ccccc2C(c2ccccc2)=N[C@@H]1Nc1nnc(-c2ccsc2N2CCOCC2)o1 [Example 471],< 400 nM
15,COCCNc1sccc1-c1nnc(N[C@H]2N=C(c3ccccc3)c3ccccc3NC2=O)o1 [Example 472],> 800 nM
16,COCCNc1sc(C(F)(F)F)nc1-c1nnc(N[C@H]2N=C(c3ccccc3)c3ccccc3NC2=O)o1 [Example 473],< 400 nM
17,O=C1Nc2ccccc2C(c2ccccc2)=N[C@@H]1Nc1nnc(-c2nc(C(F)(F)F)sc2N[C@@H]2CCOC2)o1 [Example 474],< 400 nM
18,O=C1Nc2ccccc2C(c2ccccc2)=N[C@@H]1Nc1nnc(-c2nc(C(F)(F)F)sc2NCC2COC2)o1 [Example 475],400 to 800 nM
19,O=C1Nc2ccccc2C(c2ccccc2)=N[C@@H]1Nc1nnc(-c2oc3cc(F)ccc3c2N2CCOCC2)o1 [Example 476],400 to 800 nM

# Source: patent publication US11390631B1, “Benzodiazepine derivatives as RSV inhibitors” (priority 2015, dated 2022)
